The values below come from patent publication US10000471B2, “Pyrazole P38 map kinase inhibitors” (Respivert Limited, priority 2010, dated 2018).

Entries after “also recorded” stand apart in the source; their conditions may differ.

In data set [1] the target is T1, p38 MAPKγ (MAPK12) (Homo sapiens, UniProt P53778).
T1 construct: purchased Invitrogen
T1 sequence (P53778 1-367): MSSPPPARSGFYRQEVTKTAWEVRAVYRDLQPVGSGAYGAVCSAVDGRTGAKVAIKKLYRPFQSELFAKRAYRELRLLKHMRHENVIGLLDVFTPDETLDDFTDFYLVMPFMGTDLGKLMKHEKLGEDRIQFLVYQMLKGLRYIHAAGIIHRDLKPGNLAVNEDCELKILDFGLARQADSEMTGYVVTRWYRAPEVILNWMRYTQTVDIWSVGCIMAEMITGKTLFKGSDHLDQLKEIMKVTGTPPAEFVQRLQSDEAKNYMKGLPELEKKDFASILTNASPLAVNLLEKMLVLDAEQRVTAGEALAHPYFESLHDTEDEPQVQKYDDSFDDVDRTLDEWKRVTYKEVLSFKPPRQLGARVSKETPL
Briefly: Enzyme inhibition assay (FRET, Z-LYTE), p38 MAPKγ. In kind it is biochemical. The settings on record: read-out: Enzyme Inhibition IC50 p38γ. The essentials: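 Z-LYTE FRET readout: after 1 h kinase reaction (ATP 100 μM, peptide 2 μM) following 2 h RT enzyme–compound preincubation in HEPES, protease cleaves only unphosphorylated peptide. Percent inhibition from donor/acceptor ratio relative to control; IC50 fitted from the curve.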

Data set [2] relates to ICAM-1 induction in BEAS2B cells. Briefly: Poly I:C-induced ICAM-1 induction in BEAS2B cells. The data set is classed as cell-based, human. The note with it: Homo sapiens, BEAS-2B, read-out: PolyIC/ICAM1 IC50 BEAS2B. The essentials:
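IC50 reflects inhibition of cell-surface ICAM-1 relative to vehicle, read by ELISA (OD450 against 655 nm) and divided by crystal violet OD595 for cell number. Readings were taken 18 hr after transfection of 1 μg/mL poly I:C into BEAS2B cells. Compound was added 2 hr before stimulation.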

Data set [3] relates to Differentiated U937 cells. Briefly: Cell viability MTT assay. In kind it is cell-based, human. The note with it: negative = apparent increase in viability; for MTT Assay (Viability) 4 h d-U937, percentage loss of cell viability: 4 hr in 5% FCS; for MTT Assay (Viability) 24 h d-U937, percentage loss of cell viability: 24 h in 10% FCS. The essentials:
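Differentiated U937 cells pre-incubated with compound either 4 hr in 5% FCS or 24 h in 10% FCS, then 1 hr MTT. Formazan dissolved in DMSO, absorbance at 550 nm. Percentage viability loss relative to 0.5% DMSO vehicle; apparent increases appear as negative percentages.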

Data set [4] relates to TNFα release in d-U937 cells. The data set can be described thus: LPS-induced TNFα release in d-U937 cells. The data set is classed as cell-based, human. The note with it: Homo sapiens, dU937, relative to 10 μg/mL BIRB796, read-out: LPS/TNFα REC50 d-U937. The essentials:
(§1)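 Sandwich ELISA of TNFα and IL-8 in supernatants after 4 hr 0.1 μg/mL LPS (E. coli O111:B4) challenge of U937 cells differentiated with PMA 100 ng/ml for 48–72 hr, compound added 2 hr beforehand. IL-8: IC50 from inhibition versus vehicle; TNFα: REC50 from inhibition as percentage of 10 μg/mL BIRB796 effect.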

In data set [5] the test system is IL-8 release in d-U937 cells. Briefly: LPS-induced IL-8 release in d-U937 cells. The data set is classed as cell-based, human. The settings on record: Homo sapiens, dU937. The essentials:
as §1

The subject of data set [6] is Balb/c mice. Briefly: LPS-induced neutrophil accumulation in mice. The settings on record: for % inhibition of Influx / Neutrophil numbers in BAL 8 h pre-dose: 0.2 mg/mL, 8 h pre-dose; for inhibitory effects versus neutrophil influx into the BALF: dosed 8 hr before the inflammatory stimulus. The data set is classed as in vivo. On the procedure:
LPS-Induced Neutrophil Accumulation in Mice
Non-fasted Balb/c mice were dosed by the intra tracheal route with either vehicle, or the test substance at the indicated times (within the range 2-8 hr) before stimulation of the inflammatory response by application of an LPS challenge. At T=0, mice were placed into an exposure chamber and exposed to LPS. After a further 8 hr the animals were anesthetized, their tracheas cannulated and BALF extracted by infusing and then withdrawing from their lungs 1.0 mL of PBS via the tracheal catheter. Total and differential white cell counts in the BALF samples were measured using a Neubaur haemocytometer. Cytospin smears of the BALF samples were prepared by centrifugation at 200 rpm for 5 min at RT and stained using a DiffQuik stain system (Dade Behring). Cells were counted using oil immersion microscopy.

Data set [7] relates to TNFα release in THP-1 cells. Briefly: LPS-induced TNFα release in THP-1 cells. In kind it is cell-based, human. The settings on record: Homo sapiens. The essentials:
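IC50 derived from concentration-response of TNFα inhibition relative to vehicle, with TNFα quantified by sandwich ELISA in supernatants. THP-1 cells were challenged 4 hr with LPS (E. coli, 3 μg/mL).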

In data set [8] the target is T2, p38 MAPKα isoform (MAPK14) (Homo sapiens, UniProt Q16539).
T2 construct: purchased Invitrogen
T2 sequence (Q16539 whole entry, canonical isoform): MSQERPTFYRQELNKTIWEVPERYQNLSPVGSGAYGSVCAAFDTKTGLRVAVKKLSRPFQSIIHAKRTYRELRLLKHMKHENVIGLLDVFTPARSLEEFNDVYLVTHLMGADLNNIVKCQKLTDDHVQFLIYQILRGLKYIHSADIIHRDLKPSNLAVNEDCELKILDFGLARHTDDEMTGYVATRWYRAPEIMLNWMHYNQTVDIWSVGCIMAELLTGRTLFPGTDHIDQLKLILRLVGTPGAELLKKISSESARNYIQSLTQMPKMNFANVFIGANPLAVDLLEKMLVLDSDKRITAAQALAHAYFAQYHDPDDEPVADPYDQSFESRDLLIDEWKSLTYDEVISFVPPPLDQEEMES
Briefly: Enzyme inhibition assay (FRET, Z-LYTE), p38 MAPKα via MAPKAP-K2 activation. The data set is classed as biochemical. The note with it: read-out: Enzyme Inhibition IC50 p38α. The essentials: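 Z-LYTE FRET format, in which protease cleaves only non-phosphorylated peptide, read after 1 h development. Compound was mixed with p38 MAPKα for 2 h at RT, and inhibition was gauged from MAPKAP-K2 activation/phosphorylation rather than directly. Percent inhibition against an uninhibited control was fitted to give IC50.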

Data set [9] deals with A/J mice. Briefly: Cigarette smoke model. In kind it is in vivo. The settings on record: 1.75 μg/mouse (35 μL, bid, i.n.), cigarette smoke model. As for the experimental part:
A/J mice (males, 5 weeks old) were exposed to cigarette smoke (4% cigarette smoke, diluted with air) for 30 min/day for 11 days using a Tobacco Smoke Inhalation Experiment System for small animals (Model SIS-CS; Sibata Scientific Technology, Tokyo, Japan). Test substances were administered intra-nasally (35 μL of solution in 50% DMSO/PBS) twice daily for 3 days after the final cigarette smoke exposure. At 12 hr after the last dosing, each of the animals was anesthetized, the trachea cannulated and bronchoalveolar lavage fluid (BALF) was collected. The numbers of alveolar macrophages and neutrophils were determined by FACS analysis (EPICS® ALTRA II, Beckman Coulter, Inc., Fullerton, Calif., USA) using anti-mouse MOMA2 antibody (macrophage) or anti-mouse 7/4 antibody (neutrophil).
The data for cell numbers are shown as the mean±SEM.

As to `Cc1ccc(-n2nc(C(C)(C)C)cc2NC(=O)Nc2ccc(Oc3cc(NC(=O)NCCN(C)C)ncn3)c(Cl)c2Cl)cc1` [Example 24, 1-(3-tert-Butyl-1-p-tolyl-1H-pyrazol-5-yl)-3-(2,3-dichloro-4-(6-(3-(2-(dimethylamino)ethyl)ureido)pyrimidin-4-yloxy)phenyl)urea], the IC50 in data set [1] stood at 46.3 nM; in data set [2], 10.5 nM; in data set [5], 1.1 nM; in [7], 1.7 nM; in data set [8], 5.7 nM. For the same compound, the “MTT Assay (Viability) 4 h d-U937, percentage loss of cell viability” value in data set [3] is reported as −17.7%. The “MTT Assay (Viability) 24 h d-U937, percentage loss of cell viability” value in data set [3] turned out to be 39.5%. Besides, in [4], the EC50 was determined as 1.7 nM. The “% inhibition of Influx” value in [6] (Table 5) turned out to be 9%. Moreover, the “Neutrophil numbers in BAL 8 h pre-dose” value in [6] (Table 5) is 15.71 ± 2.48 × 10^5/mL. Also, the “inhibitory effects versus neutrophil influx into the BALF” value in data set [6] was “inhibitory effects”.
In the case of `CC(C)(C)c1cc(NC(=O)Nc2ccc(Oc3ccnc(NC(=O)N4CCCC4)c3)c(Cl)c2Cl)n(-c2ccc(O)cc2)n1` [Example 75, N-(4-(4-(3-(3-tert-butyl-1-(4-hydroxyphenyl)-1H-pyrazol-5-yl)ureido)-2,3-dichlorophenoxy)pyridin-2-yl)pyrrolidine-1-carboxamide], the IC50 in [1] was found to be 181 nM; in data set [2], 0.3 nM; in data set [5] it was 1.7 nM; in data set [7] it was 0.4 nM; in data set [8], 147 nM. Further, the “MTT Assay (Viability) 4 h d-U937, percentage loss of cell viability” value in data set [3] was −33.7%. Moreover, the “MTT Assay (Viability) 24 h d-U937, percentage loss of cell viability” value in data set [3] is given as 6.6%. In addition, the EC50 in [4] turned out to be 1.3 nM. Besides, in data set [6] (Table 6), the “% inhibition of Influx” value was 23%. For the same compound, the “Neutrophil numbers in BAL 8 h pre-dose” value in data set [6] (Table 6) is 10.87 ± 2.13 × 10^5/mL. In addition, the “inhibitory effects versus neutrophil influx into the BALF” value in data set [6] was “inhibitory effects; also recorded: particularly marked”.
As for `CN(C)[C@H]1CCN(C(=O)Nc2cc(Oc3ccc(NC(=O)Nc4cc(C(C)(C)C)nn4-c4ccc(O)cc4)c(Cl)c3Cl)ccn2)C1` [Example 80, (S)-N-(4-(4-(3-(3-tert-butyl-1-(4-hydroxyphenyl)-1H-pyrazol-5-yl)ureido)-2,3-dichlorophenoxy)pyridin-2-yl)-3-(dimethylamino) pyrrolidine-1-carboxamide], the IC50 amounted to 59.3 nM in [1]; 2.3 nM in data set [2]; 3.6 nM in [5]; 0.6 nM in data set [7]; 12.3 nM in data set [8]. Further, in [3], the “MTT Assay (Viability) 4 h d-U937, percentage loss of cell viability” value was −3.0%. Also, the “MTT Assay (Viability) 24 h d-U937, percentage loss of cell viability” value in data set [3] stood at 15.7%. The EC50 in data set [4] was 0.8 nM. In data set [6] (Table 5), the “% inhibition of Influx” value turned out to be 12%. The “Neutrophil numbers in BAL 8 h pre-dose” value in data set [6] (Table 5) was 15.22 ± 2.34 × 10^5/mL. In addition, in data set [6], the “inhibitory effects versus neutrophil influx into the BALF” value is reported as “inhibitory effects”.
For the compound `COCC(=O)Nc1cc(Oc2ccc(NC(=O)Nc3cc(C(C)(C)C)nn3-c3ccc(OC)cc3)c(Cl)c2Cl)ncn1` [Example 91, N-(6-(4-(3-(3-tert-butyl-1-(4-methoxyphenyl)-1H-pyrazol-5-yl)ureido)-2,3-dichlorophenoxy)pyrimidin-4-yl)-2-methoxyacetamide], the IC50 in data set [1] came out at 162 nM; in data set [2], 2.9 nM; in [5], 5.9 nM; in data set [7], 1.6 nM; in data set [8], 58.3 nM. Further, in data set [3], the “MTT Assay (Viability) 4 h d-U937, percentage loss of cell viability” value was −47.2%. Further, in data set [3], the “MTT Assay (Viability) 24 h d-U937, percentage loss of cell viability” value was 6.9%. In addition, the EC50 in data set [4] was found to be 1.2 nM. Further, in data set [6] (Table 5), the “% inhibition of Influx” value was 33%. Moreover, the “Neutrophil numbers in BAL 8 h pre-dose” value in [6] (Table 5) is listed as 11.67 ± 2.07 × 10^5/mL. Also, the “inhibitory effects versus neutrophil influx into the BALF” value in [6] is reported as “inhibitory effects; also recorded: particularly marked”.
Consider `COc1ccc(-n2nc(C(C)(C)C)cc2NC(=O)Nc2ccc(Oc3cc(NC(=O)NCCN(C)C)ncn3)c(Cl)c2Cl)cc1` [Example 100], for which the IC50 was 59.4 nM in data set [1]; 2 nM in data set [2]; 12.9 nM in data set [5]; 0.7 nM in data set [7]; 5.3 nM in [8]. For the same compound, in [3], the “MTT Assay (Viability) 4 h d-U937, percentage loss of cell viability” value is given as −43.0%. Also, in [3], the “MTT Assay (Viability) 24 h d-U937, percentage loss of cell viability” value is 17.2%. For the same compound, in [4], the EC50 amounted to 0.3 nM.
Consider `CN(C)CCNC(=O)Nc1cc(Oc2ccc(NC(=O)Nc3cc(C(C)(C)C)nn3-c3ccc(CO)cc3)c(Cl)c2Cl)ncn1` [Example 101, 1-(3-tert-butyl-1-(4-hydroxymethylphenyl)-1H-pyrazol-5-yl)-3-(2,3-dichloro-4-(6-(3-(2-(dimethylamino)ethyl)ureido)pyrimidin-4-yloxy)phenyl)urea], for which the IC50 was 57.7 nM in data set [1]; 5.2 nM in [2]; 3.1 nM in data set [5]; 10.4 nM in data set [7]; 5.6 nM in data set [8]. Moreover, in data set [3], the “MTT Assay (Viability) 4 h d-U937, percentage loss of cell viability” value is reported as 2.8%. Further, the “MTT Assay (Viability) 24 h d-U937, percentage loss of cell viability” value in data set [3] worked out at 73.9%. Moreover, in data set [4], the EC50 worked out at 1.1 nM.
For `CNC(=O)Nc1cc(COc2ccc(NC(=O)Nc3cc(C(C)(C)C)nn3-c3ccc(C)cc3)c(Cl)c2Cl)ccn1` [Example 102, 1-(4-((4-(3-(3-tert-butyl-1-p-tolyl-1H-pyrazol-5-yl)ureido)-2,3-dichlorophenoxy)methyl)pyridin-2-yl)-3-methylurea], the IC50 in [1] came to 140 nM; in data set [2], 25.4 nM; in data set [5], 4.8 nM; in data set [7], 3.5 nM; in data set [8], 44.1 nM. The “MTT Assay (Viability) 4 h d-U937, percentage loss of cell viability” value in data set [3] is −14.1%. Besides, the “MTT Assay (Viability) 24 h d-U937, percentage loss of cell viability” value in [3] was found to be 8.8%. The EC50 in [4] came out at 4.7 nM.
Regarding `CCC(=O)O[C@]1(C(=O)SCF)[C@H](C)C[C@H]2[C@@H]3C[C@H](F)C4=CC(=O)C=C[C@]4(C)[C@@]3(F)[C@@H](O)C[C@@]21C` [fluticasone propionate, reference compound], the “inhibition of LPS-induced neutrophil accumulation” value in data set [6] (1.75 μg/mouse) is above 80%. The “neutrophil or macrophage accumulation into airways” value in [9] is listed as “did not inhibit”.
